Results: patent publication US8921307B2, “Synthetic linear apelin mimetics for the treatment of heart failure” (priority 2012, dated 2014)
Where a SMILES comes first, the peptide text is derived from it. [ ]: non-standard residue; d: D form. 2Nal = N[C@@H](Cc1ccc2ccccc2c1)C(=O)O; pGlu = O=C1CC[C@@H](C(=O)O)N1; dNle = CCCC[C@@H](N)C(=O)O; dNva = CCC[C@@H](N)C(=O)O; Aib = CC(C)(N)C(=O)O

Assays:
[1] = Plasma Stability Assay (LC-MS); format: in vitro ADME; details: male, Sprague-Dawley, rat
Protocol: Plasma Stability Assay: Materials: Working solution: 1 mg/mL test article is prepared in Milli-Q water Extraction solution: Methanol:Acetonitrile:Water (1:1:1) with 0.1% Formic Acid and 400 ng/mL Glyburide. Plasma: Male Sprague-Dawley rat plasma (with sodium heparin), purchased from Bioreclamation LLC (Liverpool, N.Y.). Test article was prepared in one of the following biological matrices: heparinized rat plasma, heparinized rat whole blood or lung homogenate. […] Lung homogenate samples were prepared by diluting lung homogenate to 1 mg/ml protein concentration with phosphate buffered saline (PBS), followed by addition of 5 uL Working solution to 995 uL diluted lung homogenate. The samples were incubated at 37° C. with gentle shaking (65˜75 rpm) in a water bath incubator. […] Afterwards, a pipetting device (Tecan Temo) was used to tranfer the supernatants to another plate and add 50 uL of water to all samples. The plate was vortexed prior to LC-MS analysis. LC-MS Analysis of stability samples HPLC: Agilent 1290 HPLC with autosampler Column: MAC-MOD ACE C18, 3 μm, 30 mm×2.1 mm i.d. Mobile phase A: 0.1% Formic acid in acetonitrile Mobile phase B: 0.1% Formic acid in water Gradient Program: [table]

[2] = target: T1, hAPJ (Homo sapiens, UniProt P35414); assay: hAPJ Calcium Flux Assay; format: cell-based; details: Chem-5 APJ stable cells, FLIPR calcium flux stimulation; read-out: hAPJ Ca^2+ Flux EC50
T1 sequence (P35414 1-380): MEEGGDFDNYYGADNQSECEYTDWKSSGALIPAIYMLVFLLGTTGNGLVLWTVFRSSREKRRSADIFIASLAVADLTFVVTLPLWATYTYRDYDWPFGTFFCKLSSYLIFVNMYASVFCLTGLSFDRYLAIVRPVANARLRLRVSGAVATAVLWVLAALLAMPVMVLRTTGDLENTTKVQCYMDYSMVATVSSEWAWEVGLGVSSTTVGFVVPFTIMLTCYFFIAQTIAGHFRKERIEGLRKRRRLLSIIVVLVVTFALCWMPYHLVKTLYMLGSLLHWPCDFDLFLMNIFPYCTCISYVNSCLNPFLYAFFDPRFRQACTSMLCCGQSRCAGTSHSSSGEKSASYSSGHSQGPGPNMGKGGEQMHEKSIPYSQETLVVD
Summary of the method: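 Chem-5 cells stably expressing APJ, loaded 1 h with Calcium 4 dye plus 2.5 mM probenecid at 37 °C. Peptides added at final […] in HBSS/HEPES/0.1% BSA, in triplicate.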

[3] = Surrogate Activity-Based Plasma Stability Assay; format: in vitro ADME; details: rat
Protocol: Stability half-life was then calculated by the formula, t½=0.693÷k Surrogate Activity-Based Plasma Stability Assay: […]
2) Calculate slope of value above and […]

[4] = Surrogate Activity based Plasma stability t½
[5] = Surrogate activity-based Plasma stability t½

Compound	half-life at 5000 ng/mL [1] [h]	EC50 [2] [nM]	half-life [3, 4] [h]	half-life [3, 5] [h]
CCCC[C@@H](NC(=O)[C@@H]1CCCN1C(=O)CNC(=O)[C@H](CCCCN)NC(=O)[C@@H](Cc1c[nH]cn1)NC(=O)[C@@H](C)NC(=O)[C@H](CC(C)C)NC(=O)[C@H](CCCNC(=N)N)NC(=O)[C@@H]1CCCN1C(=O)[C@H](CCCNC(=N)N)NC(=O)[C@@H]1CCC(=O)N1)C(=O)N[C@H](C)C(=O)N[C@H](Cc1ccccc1)C(=O)O [Example 16, pE-R-P-R-L-a-h-K-G-P-nle-a-f-OH]	7.47	8.8	6.82	6.82
CCCC[C@@H](NC(=O)[C@@H]1CCCN1C(=O)CNC(=O)[C@H](CCCCN)NC(=O)[C@H](Cc1c[nH]cn1)NC(=O)[C@@H](C)NC(=O)[C@H](CC(C)C)NC(=O)[C@H](CCCNC(=N)N)NC(=O)[C@@H]1CCCN1C(=O)[C@H](CCCNC(=N)N)NC(=O)[C@@H]1CCC(=O)N1)C(=O)N[C@H](CC)C(=O)N[C@H](Cc1ccccc1)C(=O)O [Example 45, pE-R-P-R-L-a-H-K-G-P-nle-abu-f-OH]		2.4		> 16.7
CCCC[C@@H](NC(=O)[C@@H]1CCCN1C(=O)CNC(=O)[C@H](CCCCN)NC(=O)[C@H](Cc1c[nH]cn1)NC(=O)[C@@H](C)NC(=O)[C@H](Cc1ccc2ccccc2c1)NC(=O)[C@H](CCCNC(=N)N)NC(=O)[C@@H]1CCCN1C(=O)[C@H](CCCNC(=N)N)NC(=O)[C@@H]1CCC(=O)N1)C(=O)N[C@H](C)C(=O)N[C@H](Cc1ccccc1)C(=O)O [Example 25, pE-R-P-R-(2-Nal)-a-H-K-G-P-nle-a-f-OH] ([pGlu]RPR[2Nal][dA]HKGP[dNle][dA][dF]-OH)		69.2		4.03
CCCC[C@@H](NC(=O)[C@@H]1CCCN1C(=O)CNC(=O)[C@H](CCCCN)NC(=O)[C@H](Cc1c[nH]cn1)NC(=O)[C@@H](C)NC(=O)[C@H](CC(C)C)NC(=O)[C@H](CCCNC(=N)N)NC(=O)[C@@H]1CCCN1C(=O)[C@H](CCCNC(=N)N)NC(=O)[C@@H]1CCC(=O)N1)C(=O)N[C@H](C)C(=O)NCCc1ccccc1 [Example 36, pE-R-P-R-L-a-H-K-G-P-nle-a-NH(Phenethyl)]		16.2		2.02
CCCC[C@@H](NC(=O)[C@@H]1CCCN1C(=O)CNC(=O)[C@H](CCCCN)NC(=O)[C@H](Cc1c[nH]cn1)NC(=O)[C@@H](CO)NC(=O)[C@H](CC(C)C)NC(=O)[C@H](CCCNC(=N)N)NC(=O)[C@@H]1CCCN1C(=O)[C@H](CCCNC(=N)N)NC(=O)[C@@H]1CCC(=O)N1)C(=O)N[C@H](C)C(=O)N[C@H](Cc1ccccc1)C(=O)O [Example 12, pE-R-P-R-L-s-H-K-G-P-nle-a-f-OH] ([pGlu]RPRL[dS]HKGP[dNle][dA][dF]-OH)		0.9		> 16.7
CCC[C@@H](NC(=O)[C@@H]1CCCN1C(=O)CNC(=O)[C@H](CCCCN)NC(=O)[C@H](Cc1c[nH]cn1)NC(=O)[C@@H](C)NC(=O)[C@H](CC(C)C)NC(=O)[C@H](CCCNC(=N)N)NC(=O)[C@@H]1CCCN1C(=O)[C@H](CCCNC(=N)N)NC(=O)[C@@H]1CCC(=O)N1)C(=O)N[C@H](C)C(=O)N[C@H](Cc1ccccc1)C(=O)O [Example 53, pE-R-P-R-L-a-H-K-G-P-nva-a-f-OH] ([pGlu]RPRL[dA]HKGP[dNva][dA][dF]-OH)		8.7		> 16.7
CCCC[C@@H](NC(=O)[C@@H]1CCCN1C(=O)CNC(=O)[C@H](CCCCN)NC(=O)[C@H](Cc1c[nH]cn1)NC(=O)[C@@H](C)NC(=O)[C@H](CC(C)C)NC(=O)[C@H](CCCNC(=N)N)NC(=O)[C@@H]1CCCN1C(=O)[C@H](CCCNC(=N)N)NC(=O)[C@@H]1CCC(=O)N1)C(=O)N[C@H](C)C(=O)N[C@H](Cc1ccccc1)C(N)=O [Example 33, pE-R-P-R-L-a-H-K-G-P-nle-a-f-NH2]		14.8		> 16.7

Continued, values first:

half-life at 5000 ng/mL [1] [h]	EC50 [2] [nM]	half-life [3, 4] [h]	half-life [3, 5] [h]	Compound
6.75	3.2	3.08	3.08	CCCC[C@@H](NC(=O)[C@@H]1CCCN1C(=O)CNC(=O)[C@H](CCCCN)NC(=O)[C@H](Cc1c[nH]cn1)NC(=O)[C@@H](C)NC(=O)[C@H](CC(C)C)NC(=O)[C@H](CCCNC(=N)N)NC(=O)[C@@H]1CCCN1C(=O)[C@H](CCCNC(=N)N)NC(=O)[C@@H]1CCC(=O)N1)C(=O)N[C@H](CC(C)C)C(=O)N[C@H](Cc1ccccc1)C(=O)O [Example 14, pE-R-P-R-L-a-H-K-G-P-nle-(D-Leu)-f-OH] ([pGlu]RPRL[dA]HKGP[dNle][dL][dF]-OH)
6.9	5	12.2	12.2	CCCC[C@@H](NC(=O)[C@@H]1CCCN1C(=O)CNC(=O)[C@H](CCCCN)NC(=O)C(C)(C)NC(=O)[C@H](CO)NC(=O)[C@@H](CC(C)C)NC(=O)[C@H](CCCNC(=N)N)NC(=O)[C@@H]1CCCN1C(=O)[C@H](CCCNC(=N)N)NC(=O)[C@@H]1CCC(=O)N1)C(=O)N[C@H](C)C(=O)N[C@H](Cc1ccccc1)C(=O)O [Example 4, pE-R-P-R-(D-Leu)-S-Aib-K-G-P-nle-a-f-OH] ([pGlu]RPR[dL]S[Aib]KGP[dNle][dA][dF]-OH)
6.08	3.1	> 16.7	> 16.7	CCCC[C@@H](NC(=O)[C@@H]1CCCN1C(=O)CNC(=O)[C@H](CCCCN)NC(=O)[C@H](Cc1ccccc1)NC(=O)[C@@H](C)NC(=O)[C@H](CC(C)C)NC(=O)[C@H](CCCNC(=N)N)NC(=O)[C@@H]1CCCN1C(=O)[C@H](CCCNC(=N)N)NC(=O)[C@@H]1CCC(=O)N1)C(=O)N[C@H](C)C(=O)N[C@H](Cc1ccccc1)C(=O)O [Example 17, pE-R-P-R-L-a-F-K-G-P-nle-a-f-OH] ([pGlu]RPRL[dA]FKGP[dNle][dA][dF]-OH)
2.02	2.4	2.13	2.14	CCCC[C@H](NC(=O)[C@@H]1CCCN1C(=O)CNC(=O)[C@H](CCCCN)NC(=O)[C@H](Cc1c[nH]cn1)NC(=O)[C@@H](C)NC(=O)[C@H](CC(C)C)NC(=O)[C@H](CCCNC(=N)N)NC(=O)[C@@H]1CCCN1C(=O)[C@H](CCCNC(=N)N)NC(=O)[C@@H]1CCC(=O)N1)C(=O)N[C@H](C)C(=O)N[C@H](Cc1ccccc1)C(=O)O [Example 30, pE-R-P-R-L-a-H-K-G-P-Nle-a-f-OH]
2.6		9.42	9.42	CCCC[C@@H](NC(=O)[C@@H]1CCCN1C(=O)CNC(=O)[C@H](CCCCN)NC(=O)[C@H](Cc1c[nH]cn1)NC(=O)[C@@H](C)NC(=O)[C@H](CC(C)C)NC(=O)[C@H](CCCNC(=N)N)NC(=O)[C@@H]1CCCN1C(=O)[C@H](CCCNC(=N)N)NC(=O)[C@@H]1CCC(=O)N1)C(=O)N[C@H](C)C(=O)N[C@H](Cc1ccccc1)C(=O)O [Example 29, pE-R-P-R-L-a-H-K-G-P-nle-a-f-OH]
	200		> 16.7	CCCC[C@@H](NC(=O)[C@@H]1CCCN1C(=O)CNC(=O)[C@H](CCC(=O)O)NC(=O)[C@H](Cc1c[nH]cn1)NC(=O)[C@@H](C)NC(=O)[C@H](CC(C)C)NC(=O)[C@H](CCCNC(=N)N)NC(=O)[C@@H]1CCCN1C(=O)[C@H](CCCNC(=N)N)NC(=O)[C@@H]1CCC(=O)N1)C(=O)N[C@H](C)C(=O)N[C@H](Cc1ccccc1)C(=O)O [Example 60, pE-R-P-R-L-a-H-E-G-P-nle-a-f-OH] ([pGlu]RPRL[dA]HEGP[dNle][dA][dF]-OH)
	7.4		14.2	CCCC[C@@H](NC(=O)[C@@H]1CCCN1C(=O)CNC(=O)[C@H](CCC(N)=O)NC(=O)[C@H](Cc1c[nH]cn1)NC(=O)[C@@H](C)NC(=O)[C@H](CC(C)C)NC(=O)[C@H](CCCNC(=N)N)NC(=O)[C@@H]1CCCN1C(=O)[C@H](CCCNC(=N)N)NC(=O)[C@@H]1CCC(=O)N1)C(=O)N[C@H](C)C(=O)N[C@H](Cc1ccccc1)C(=O)O [Example 59, pE-R-P-R-L-a-H-Q-G-P-nle-a-f-OH] ([pGlu]RPRL[dA]HQGP[dNle][dA][dF]-OH)
